molecular target: human AD brain tissue homogenate (Homo sapiens, UniProt P05067); test: Tissue homogenate binding assay (competition with [3H]-DMAB); conditions: human AD brain (frontal cortex) homogenate, 1.5 nM [3H]-DMAB radioligand, room temperature, 90 minutes
Procedure: PET radiotracer candidate compounds were then selected based on their high affinity competition with [^3H]-DMAB in binding to AD brain homogenates. These PET radiotracer candidate compounds were tested to determine if they were effective PgP substrates. Those PET radiotracer candidate compounds with little PgP substrate activity were radiolabeled with [^3H] or [^18F] and tested for binding affinity to human AD brain homogenates as well as binding to human non-AD brain homogenates and in autoradiographic studies using human AD and non-AD brain slices. Candidate radioligands were selected based on their strong binding affinity for human AD brain homogenates, and minimal binding to non-AD control homogenates. A low fraction of non-displaceable binding was also an important criterion. Minimization of white matter binding was an important criterion.
Postmortem frozen human brain samples from donors with clinical diagnosis of Alzheimer's diseases (AD) or normal control subjects (non-AD) were purchased from Analytical Biological Services Inc., at 701-4 Cornell Business Park, Wilmington, Del. 19801. Brain homogenates of frontal cortex were prepared, divided into aliquots and stored at −70° C. prior to use.
[^3H]-DMAB was synthesized at a specific activity of ˜80 Ci/mmol. The final concentration of radioligand for tissue homogenate binding assay was 1.5 nM. Brain homogenates were diluted with phosphate buffered saline (PBS) to 0.4 mg/mL from original 10 mg/mL volume and 200 μl was used in assay for a final concentration of […]. Unlabeled test compounds were dissolved in dimethylsulfoxide (DMSO) at 1 mM. Dilution of test compound to various concentrations was made with PBS containing 2% DMSO. Total binding was defined in the absence of competing compound, and non-displaceable binding was determined in the presence of 1 μM unlabeled self block. Compound dilutions (10×) were added into the assay tube (25 μL each/per tube, separately) containing 200 μL brain homogenate dilution, and the tubes were pre-incubated at room temperature for 10 minutes. Then radioligand dilutions (10×) were added into the assay tube (25 μl each/per tube, separately) to a final volume of 250 μL per tube. Incubation was carried out at room temperature (25° C.) for 90 minutes, and then the assay samples were filtered onto GF/C filters using Skatron 12 well harvester, washing on setting 5-5-5 (˜3×2 ml) ice cold buffer (PBS, pH 7.4). GF/C filter papers for the Skatron harvester were pre-soaked in 0.1% BSA for 1 hour at room temperature before use. Filters were punched into scintillation vials and counted in 2 mL Ultima Gold on Perkin Elmer Tri-Carb 2900TR for 1 minute. The data analysis was done with Prism software. […]

Sequence of human AD brain tissue homogenate (P05067 whole entry): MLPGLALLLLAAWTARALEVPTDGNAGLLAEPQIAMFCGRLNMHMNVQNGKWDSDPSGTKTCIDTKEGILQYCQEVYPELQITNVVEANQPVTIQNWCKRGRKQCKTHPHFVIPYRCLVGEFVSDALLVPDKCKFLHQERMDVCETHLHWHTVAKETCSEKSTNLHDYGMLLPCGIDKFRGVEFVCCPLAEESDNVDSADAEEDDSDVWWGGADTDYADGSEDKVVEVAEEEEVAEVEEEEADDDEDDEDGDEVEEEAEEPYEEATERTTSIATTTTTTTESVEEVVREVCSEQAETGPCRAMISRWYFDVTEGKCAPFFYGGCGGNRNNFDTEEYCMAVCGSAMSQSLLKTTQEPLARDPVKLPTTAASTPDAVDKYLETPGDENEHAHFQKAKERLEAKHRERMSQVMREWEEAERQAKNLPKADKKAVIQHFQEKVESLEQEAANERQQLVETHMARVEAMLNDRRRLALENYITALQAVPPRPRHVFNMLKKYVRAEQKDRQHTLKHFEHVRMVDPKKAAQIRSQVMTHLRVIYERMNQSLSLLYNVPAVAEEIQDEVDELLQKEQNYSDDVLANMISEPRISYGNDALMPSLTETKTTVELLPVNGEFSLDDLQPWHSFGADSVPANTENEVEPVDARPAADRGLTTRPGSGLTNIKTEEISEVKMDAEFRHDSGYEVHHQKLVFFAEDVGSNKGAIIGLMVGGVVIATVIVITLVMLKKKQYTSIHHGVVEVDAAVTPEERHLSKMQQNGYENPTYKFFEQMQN

IC50 [nM] | SMILES
10 | COc1ccc(-c2cc(-c3ccc(N(C)C)cc3)n[nH]2)cc1
50 | CN(C)c1ccc(-c2cc(-c3cnc4[nH]ccc4c3)n[nH]2)cc1
10 | COc1ccc(-c2noc(-c3ccc4cc[nH]c4c3)n2)cc1
77 | COc1ccc(-c2noc(-c3cnc(F)c(C)c3)n2)cc1

From patent publication US20110081297A1, “Novel Substituted Pyrazoles, 1,2,4-Oxadiazoles, and 1,3,4-Oxadiazoles” (priority 2008, published 2011)
